Measurements: patent publication US7528170B2, “Sulfonamide derivatives for the treatment of diseases” (Pfizer Inc., priority 2004, dated 2009)

target: T1, human β2 adrenergic receptor (Homo sapiens, UniProt P07550); experiment: β2 cAMP agonist potency assay in CHOhβ2 cells (cAMP-Flashplate); type: cell-based; conditions: CHO cells recombinantly expressing the human β2 adrenergic receptor; compounds incubated with cells for 1 hour; data as % Isoprenaline activity, four parameter sigmoid fit
T1 construct: expressed in transfected cells; host or cells: CHO (Chinese Hamster Ovary) cells, CHOhβ2
Procedure: According to another alternative, the agonist potency for the β2 receptor of the compounds of the formula (1) may also be determined by the measure of the concentration of compound according to the present invention required to produce half maximal effect (EC50) for the β2 receptor.
10 mM/100% DMSO (dimethylsulfoxide) stock of compound is diluted to required top dose in 4% DMSO. This top dose is used to construct a 10-point semi-log dilution curve, all in 4% DMSO. Isoprenaline (Sigma, 1-5627) was used as a standard in every experiment and for control wells on each plate. Data was expressed as % Isoprenaline response.
CHO (Chinese Hamster Ovary) cells recombinantly expressing the human β2 adrenergic receptor (from Kobilka et al., PNAS 84: 46-50, 1987 and Bouvier et al., Mol Pharmacol 33: 133-139 1988 CHOhβ2) were grown in Dulbeccos MEM/NUT MIX F12 (Gibco, 21331-020) supplemented with 10% foetal bovine serum (Sigma, F4135, Lot 90K8404 Exp 09/04), 2 mM glutamine (Sigma, G7513), 500 μg/ml geneticin (Sigma, G7034) and 10 μg/ml puromycin (Sigma, P8833). Cells were seeded to give about 90% confluency for testing.
25 μl/well each dose of compound was transferred into a cAMP-Flashplate® (NEN, SMP004B), with 1% DMSO as basal controls and 100 nM Isoprenaline as max controls. This was diluted 1:2 by the addition of 25 μl/well PBS. Cells were trypsinised (0.25% Sigma, T4049), washed with PBS (Gibco, 14040-174) and resuspended in stimulation buffer (NEN, SMP004B) to give 1×10^6 cells/ml CHOhB2. Compounds were incubated with 50 μl/well cells for 1 hour. Cells were then lysed by the addition of 100 μl/well detection buffer (NEN, SMP004B) containing 0.18 μCi/ml ^125I-cAMP (NEN, NEX-130) and plates were incubated at room temperature for a further 2 hours. The amount of ^125I-cAMP bound to the Flashplate® was quantified using a Topcount NXT (Packard), normal counting efficiency for 1 minute. Dose-response data was expressed as % Isoprenaline activity and fitted using a four parameter sigmoid fit. […] The following table illustrate the activity of the compounds of the invention: […]

T1 sequence (P07550 whole entry): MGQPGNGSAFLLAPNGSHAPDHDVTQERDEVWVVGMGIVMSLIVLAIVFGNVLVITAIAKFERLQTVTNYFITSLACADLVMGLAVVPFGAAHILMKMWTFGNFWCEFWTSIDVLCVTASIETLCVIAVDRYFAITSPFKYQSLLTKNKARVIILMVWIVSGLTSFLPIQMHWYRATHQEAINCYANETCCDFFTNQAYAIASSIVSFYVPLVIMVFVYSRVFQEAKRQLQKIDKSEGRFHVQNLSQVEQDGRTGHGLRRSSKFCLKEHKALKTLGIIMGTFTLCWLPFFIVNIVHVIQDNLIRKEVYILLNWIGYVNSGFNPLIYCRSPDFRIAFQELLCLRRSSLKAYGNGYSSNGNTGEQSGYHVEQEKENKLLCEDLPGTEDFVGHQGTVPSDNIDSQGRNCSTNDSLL

| EC50 | Compound |
| --- | --- |
| 0.03 nM | COc1cc(CNC(=O)Cc2cccc(CC(C)(C)NC[C@H](O)c3ccc(O)c(NS(C)(=O)=O)c3)c2)ccc1O [Example 1, 2-(3-{2-[((2R)-2-Hydroxy-2-{4-hydroxy-3-[(methylsulfonyl)amino]phenyl}ethyl)amino]-2-methylpropyl}phenyl)-N-(4-hydroxy-3-methoxybenzyl)acetamide] |
| 0.16 nM | CC(C)(Cc1cccc(CC(=O)NCc2ccc3cc(O)ccc3c2)c1)NC[C@H](O)c1ccc(O)c(NS(C)(=O)=O)c1 [Example 6] |
| 0.09 nM | CC(C)(Cc1cccc(CC(=O)NCCc2ccc(O)cc2)c1)NC[C@H](O)c1ccc(O)c(NS(C)(=O)=O)c1 [Example 15, 2-(3-{2-[((2R)-2-Hydroxy-2-{4-hydroxy-3-[(methylsulfonyl)amino]phenyl}ethyl)amino]-2-methylpropyl}phenyl)-N-[2-(4-hydroxyphenyl)ethyl]acetamide] |

Second part, the compound before the results:

| Compound | EC50 |
| --- | --- |
| CC(C)(Cc1cccc(CC(=O)NCc2ccc(-c3ccc(O)cc3)cc2)c1)NC[C@H](O)c1ccc(O)c(NS(C)(=O)=O)c1 [Example 2, N-[(4′-Hydroxybiphenyl-4-yl)methyl]-2-(3-{2-[((2R)-2-hydroxy-2-{4-hydroxy-3-[(methylsulfonyl)amino]phenyl}ethyl)amino]-2-methylpropyl}phenyl)acetamide] | 0.24 nM |
| CC(C)(Cc1cccc(CC(=O)NCc2cccc(-c3ccc(O)cc3)c2)c1)NC[C@H](O)c1ccc(O)c(NS(C)(=O)=O)c1 [Example 7, N-[(4′-Hydroxybiphenyl-3-yl)methyl]-2-(3-{2-[((2R)-2-hydroxy-2-{4-hydroxy-3-[(methylsulfonyl)amino]phenyl}ethyl)amino]-2-methylpropyl}phenyl)acetamide] | 0.26 nM |
| CC(C)(Cc1cccc(CC(=O)NCC(C)(C)c2ccc(O)cc2)c1)NC[C@H](O)c1ccc(O)c(NS(C)(=O)=O)c1 [Example 9, 2-(3-{2-[((2R)-2-Hydroxy-2-(4-hydroxy-3-[(methylsulfonyl)amino]phenyl)ethyl)amino]-2-methylpropyl}phenyl)-N-[2-(4-hydroxyphenyl)-2-methylpropyl]acetamide] | 0.45 nM |
| CC(C)(Cc1cccc(CC(=O)N2CCc3cc(O)ccc3C2)c1)NC[C@H](O)c1ccc(O)c(NS(C)(=O)=O)c1 [Example 13, N-(2-Hydroxy-5-{(1R)-1-hydroxy-2-[(2-{3-[2-(6-hydroxy-3,4-dihydroisoquinolin-2(1H)-yl)-2-oxoethyl]phenyl}-1,1-dimethylethyl)amino]ethyl}phenyl)methanesulfonamide] | 0.08 nM |
| CC(C)(Cc1cccc(CC(=O)NCc2cc(O)cc(C(F)(F)F)c2)c1)NC[C@H](O)c1ccc(O)c(NS(C)(=O)=O)c1 [Example 20, 2-(3-{2-[((2R)-2-Hydroxy-2-{4-hydroxy-3-[(methylsulfonyl)amino]phenyl}ethyl)amino]-2-methylpropyl}phenyl)-N-[3-hydroxy-5-(trifluoromethyl)benzyl]acetamide] | 0.29 nM |
